From article PMC13371181, “A paracrine-to-autocrine shunt of GREM1 fuels colorectal cancer metastasis via ACVR1C” (Molecular Cancer, 2026)
“Also recorded” adds a separate entry of the source. Peptide text beside a SMILES is read from it.

Experiments:
HCT116-luc cells = experiment: Spleen-to-liver metastasis model, HCT116-luc (pLV-GREM1) in NOG mice; format: in vivo, human cells in NOG mice; details: HCT116-luc (pLV-GREM1) injected in the spleen, ACVR1C peptide 10 mg/kg i.v. (tail vein) every other day from 48 h after cell injection, IVIS, n = 5 mice per group
Description: For spleen-to-liver metastasis model, 5 × 10^5 MC38-luc cells or MC38-luc (pLV-Grem1) cells were resuspended in 50 µL of PBS and injected into the spleen of GD mice or control mice (Grem1-CreER^T2/Rosa-LSL-DTA mice) (n = 5 mice in each group). 5 × 10^5 HCT116-luc cells carrying a pLV or pLV-GREM1 were resuspended in 50 µL of PBS and intrasplenically injected into NOG mice (n = 5 mice in each group). ACVR1C peptide was administered via tail vein injection at a dose of 10 mg/kg once every other day.

GREM1 [1] = target: T1, GREM1 (Homo sapiens, UniProt O60565); experiment: MST binding of ACVR1C peptide to GREM1-His; details: GREM1 for ACVR1C peptide versus ACVR1C-ECD
T1 construct: His; purchased R&D 5190-GR
T1 sequence (O60565 25-184): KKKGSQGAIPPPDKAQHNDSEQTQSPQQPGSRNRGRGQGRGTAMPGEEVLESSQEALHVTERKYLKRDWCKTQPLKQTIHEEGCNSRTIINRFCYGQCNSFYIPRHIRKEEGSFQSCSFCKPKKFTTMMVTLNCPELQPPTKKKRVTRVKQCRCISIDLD
Description: MST was carried out on a Monolith NT.115 instrument (NanoTemper Technologies GmbH, MO-L011). To evaluate ACVR1C-ECD or ACVR1C peptide or ACVR1C-ECD-double mutant (E85A/T101A) binding to GREM1-His or ACTIVIN B-His, an increasing concentration of purified ACVR1C-ECD-Fc protein (0–27.5 µM) or ACVR1C peptide (0–2.3 µM) or ACVR1C-ECD-double mutant (0–27.5 µM) was incubated with 50 nM red-fluorescently labeled (NanoTemper Technologies GmbH, MO-L011) GREM1-His protein (R&D, 5190-GR) or ACTIVIN B-His protein (SinoBiological, 10814-H08H). Experiments were carried out in a PBS buffer pH 7.4 using premium capillaries (NanoTemper Technologies GmbH, MO-K025).

GREM1–ACVR1C = experiment: Pull-down assay, blocking of GREM1–ACVR1C-ECD binding; parameters: species or system human; details: GREM1-His and ACVR1C-ECD-Fc, Coomassie Brilliant Blue
Description: Protein pull-down assay was performed using purified recombinant human His-tagged GREM1 protein and recombinant human ACVR1C-ECD and Fc chimera protein. Protein was enriched by Pierce Protein A magnetic beads (MCE, HY-K0202) or Ni Sepharose 6 Fast Flow (GE, 17531801) following the manufacturer’s instructions. Pulled-down proteins were detected by Coomassie Brilliant Blue staining.

GREM1 [2] = details: monoclonal antibodies; cited from earlier work
Source text: The advent of cancer genomics and precision medicine has enabled targeted therapies for advanced CRC, with agents against VEGF, EGFR, BRAF V600E, and HER2 showing efficacy in selected patient subsets. However, issues like limited bioavailability, resistance, and narrow indications restrict their broader use. Unlike mutation-specific targets, GREM1 is a widely expressed cytokine with sustained, context-dependent activity, making it a promising and potentially broadly applicable therapeutic target in CRC. Therapeutic targeting of GREM1 to date has focused largely on full neutralization str ...

| Compound | liver metastasis (HCT116-luc cells) | liver metastasis (HCT116-luc cells; listed as GREM1-blocking peptide) | affinity compared with ACVR1C-ECD (GREM1 [1]) | blocking of GREM1–ACVR1C binding (GREM1–ACVR1C) | efficacy in preclinical models (GREM1 [2]) |
| --- | --- | --- | --- | --- | --- |
| CC[C@H](C)[C@H](NC(=O)[C@H](CC(N)=O)NC(=O)[C@H](CC(N)=O)NC(=O)[C@H](CS)NC(=O)[C@H](Cc1ccccc1)NC(=O)[C@H](CC(=O)O)NC(=O)[C@@H](NC(=O)[C@H](Cc1ccccc1)NC(=O)[C@H](CS)NC(=O)[C@H](CS)NC(=O)[C@H](CCC(=O)O)NC(=O)[C@@H](N)[C@@H](C)O)[C@@H](C)O)C(=O)N[C@H](C(=O)N[C@@H](CC(C)C)C(=O)N[C@@H](Cc1c[nH]cn1)C(=O)N[C@@H](CC(C)C)C(=O)N1CCC[C@H]1C(=O)N[C@H](C(=O)N[C@@H](C)C(=O)O)[C@@H](C)O)[C@@H](C)O [ACVR1C peptide] (H-TECCFTDFCNNITLHLPTA-OH; N-terminus and C-terminus assumed) | effectively suppressed the increase in liver metastasis induced by tumor-specific GREM1 overexpression | significantly impairs CRC metastasis in vivo | comparable to that for the ACVR1C-ECD | significantly blocked the GREM1–ACVR1C binding; also recorded: blocked the interaction between GREM1 and ACVR1C-ECD | – |
| Ginisortamab: fully humanized anti-GREM1 monoclonal antibody | – | – | – | – | have shown efficacy in preclinical models |
